The results in this text go back to ChEMBL document CHEMBL1138903, “Secondary amides of sulfonylated 3-amidinophenylalanine. New potent and selective inhibitors of matriptase” (J Med Chem, 2006).

Assay [1] is described as follows: Anticoagulant activity in blood by aPTT assay. Format: functional, Homo sapiens.
Assay [2] deals with T1, Suppressor of tumorigenicity 14 protein (Homo sapiens, UniProt Q9Y5Y6).
T1 sequence (Q9Y5Y6 whole entry): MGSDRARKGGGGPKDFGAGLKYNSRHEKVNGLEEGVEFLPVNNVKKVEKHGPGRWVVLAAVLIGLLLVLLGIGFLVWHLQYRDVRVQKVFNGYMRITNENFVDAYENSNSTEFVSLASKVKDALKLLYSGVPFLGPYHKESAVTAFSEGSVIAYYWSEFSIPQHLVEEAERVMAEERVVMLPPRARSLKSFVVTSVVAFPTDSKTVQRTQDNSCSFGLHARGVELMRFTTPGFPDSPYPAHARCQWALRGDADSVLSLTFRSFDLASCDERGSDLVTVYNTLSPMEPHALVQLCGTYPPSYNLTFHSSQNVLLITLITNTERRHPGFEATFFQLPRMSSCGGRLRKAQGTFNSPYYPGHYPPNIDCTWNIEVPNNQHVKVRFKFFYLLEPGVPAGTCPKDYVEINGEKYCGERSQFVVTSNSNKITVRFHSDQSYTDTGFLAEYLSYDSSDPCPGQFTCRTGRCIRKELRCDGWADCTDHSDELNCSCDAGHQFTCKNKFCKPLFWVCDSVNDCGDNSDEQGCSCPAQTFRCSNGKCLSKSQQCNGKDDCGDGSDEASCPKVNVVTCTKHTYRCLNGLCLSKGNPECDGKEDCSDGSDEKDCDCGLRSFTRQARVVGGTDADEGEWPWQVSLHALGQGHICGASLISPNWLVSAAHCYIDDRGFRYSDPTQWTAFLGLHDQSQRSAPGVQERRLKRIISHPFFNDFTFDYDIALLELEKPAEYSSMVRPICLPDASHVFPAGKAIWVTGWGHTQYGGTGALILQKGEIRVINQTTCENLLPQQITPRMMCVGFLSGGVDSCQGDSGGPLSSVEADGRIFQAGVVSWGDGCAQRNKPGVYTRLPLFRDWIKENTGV

In assay [3] the target is Plasminogen (Homo sapiens, UniProt P00747). Description: Inhibition of plasmin.
Assay [4] concerns the target Coagulation factor VII/tissue factor (Homo sapiens) (UniProt P08709+P13726). Conditions: Blood.
Description: Anticoagulant activity in blood by PT assay
Assay [5] concerns the target Coagulation factor X (Homo sapiens, UniProt P00742). Description: Inhibition of f10a.
In assay [6] the target is T2, Prothrombin (Homo sapiens, UniProt P00734). The note with it: Blood.
In assay [7] the target is Urokinase-type plasminogen activator (Homo sapiens, UniProt P00749). Put plainly: Inhibition of uPA.
Assay [8] deals with T2, Prothrombin. Put plainly: Inhibition of thrombin.
Assay [9] deals with PC-3. Put plainly: Reduction of median primary tumor growth of PC3 cell line xenografted in nude mouse at 5 mg/kg, ip. Format: functional, Homo sapiens. On the set-up: scale not given: the % may be the effect or the level left. Conditions: route intraperitoneal.
Assay [10] concerns PC-3. Description: Reduction of dissemination into thorax in nude mouse xenografted with PC3 cell line at 5 mg/kg, ip. On the set-up: scale not given: the % may be the effect or the level left. The note with it: route intraperitoneal. Format: functional.
The target in assay [11] is T1, Suppressor of tumorigenicity 14 protein. Description: Reduction of matriptase-catalyzed pro-HGF to HGF processing. The class given is functional.

Sequence of Plasminogen (P00747 97-580 limits assumed): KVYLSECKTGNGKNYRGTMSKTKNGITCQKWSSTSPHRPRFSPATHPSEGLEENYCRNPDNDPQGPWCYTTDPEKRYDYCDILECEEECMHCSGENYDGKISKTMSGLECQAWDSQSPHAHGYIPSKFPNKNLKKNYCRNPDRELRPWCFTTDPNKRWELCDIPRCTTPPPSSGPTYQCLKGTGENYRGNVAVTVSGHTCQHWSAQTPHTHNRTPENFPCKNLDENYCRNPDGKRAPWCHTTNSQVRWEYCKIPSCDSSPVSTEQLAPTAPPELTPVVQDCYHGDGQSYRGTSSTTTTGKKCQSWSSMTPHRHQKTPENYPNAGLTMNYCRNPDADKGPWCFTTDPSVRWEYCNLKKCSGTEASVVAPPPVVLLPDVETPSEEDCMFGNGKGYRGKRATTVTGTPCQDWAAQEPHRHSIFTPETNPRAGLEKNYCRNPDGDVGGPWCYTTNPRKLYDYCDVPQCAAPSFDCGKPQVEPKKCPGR
Sequence of Plasminogen (P00747 581-810 limits assumed): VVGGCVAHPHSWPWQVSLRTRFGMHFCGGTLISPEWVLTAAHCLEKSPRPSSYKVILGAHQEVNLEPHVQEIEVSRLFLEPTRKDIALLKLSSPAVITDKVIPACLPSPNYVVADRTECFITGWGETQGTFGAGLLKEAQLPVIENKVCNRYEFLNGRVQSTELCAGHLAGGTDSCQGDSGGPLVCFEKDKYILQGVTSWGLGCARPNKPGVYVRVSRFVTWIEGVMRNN
Sequence of Coagulation factor X (P00742 41-179 limits assumed): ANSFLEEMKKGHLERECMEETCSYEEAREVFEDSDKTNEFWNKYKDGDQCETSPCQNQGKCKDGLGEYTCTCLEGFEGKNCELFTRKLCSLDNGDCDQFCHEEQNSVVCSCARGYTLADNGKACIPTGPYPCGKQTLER
Sequence of Coagulation factor X (P00742 235-488 limits assumed): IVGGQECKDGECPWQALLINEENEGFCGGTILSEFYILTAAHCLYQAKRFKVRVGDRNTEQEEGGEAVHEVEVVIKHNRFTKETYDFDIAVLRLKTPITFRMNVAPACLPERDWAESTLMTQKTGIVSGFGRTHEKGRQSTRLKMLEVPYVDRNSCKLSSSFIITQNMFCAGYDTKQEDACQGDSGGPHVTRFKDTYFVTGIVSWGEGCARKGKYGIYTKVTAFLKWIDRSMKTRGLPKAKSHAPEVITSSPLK

For orientation: Ki means the equilibrium dissociation constant of an inhibitor or competing ligand from its target. Take `N=C(N)c1cccc(C[C@H](NS(=O)(=O)c2cccc(NC(=O)CCN)c2)C(=O)N2CCC(CCCN=C(N)N)CC2)c1`: the IC200 in [1], in [4] and in assay [6] was greater than 10 µM in each case. Besides, the Ki turned out to be 1.5 nM in [2]; 2800 nM in assay [3]; 13 µM in assay [5]; 1800 nM in assay [7]; 4000 nM in assay [8].

As to `N=C(N)NCCC(=O)N1CCN(C(=O)[C@H](Cc2cccc(C(=N)N)c2)NS(=O)(=O)c2ccc(-c3ccccc3)cc2)CC1`, the Ki in assay [2] amounted to 250 nM; in assay [3], 3100 nM; in assay [5], 10 µM; in [7] it was 4000 nM; in assay [8] it was 580 nM.

Take `CCC(C)(C)c1ccc(S(=O)(=O)N[C@@H](Cc2cccc(C(=N)N)c2)C(=O)N2CCN(C(=O)CCN=C(N)N)CC2)cc1`: the Ki in [2] is 200 nM; in assay [3], 2500 nM; in assay [5], 8.3 µM; in assay [7] it was 18000 nM; in assay [8], 260 nM.

Consider `N=C(N)NCCC1CCN(C(=O)[C@H](Cc2cccc(C(=N)N)c2)NS(=O)(=O)c2ccc(Oc3ccccc3)nc2)CC1`, for which the IC200 in [1] amounted to 1.5 µM; in assay [4], 1.6 µM; in assay [6], 0.27 µM. Besides, the Ki is 13 nM in [2]; 1400 nM in [3]; 2.2 µM in [5]; 3400 nM in assay [7]; 99 nM in assay [8].

On to `N=C(N)NCCNC(=O)C1CCN(C(=O)[C@H](Cc2cccc(C(=N)N)c2)NS(=O)(=O)c2ccc3c(c2)C(=O)c2ccccc2C3=O)CC1`, for which the inhibitory constant (Ki) in assay [2] worked out at 13 nM; in assay [3] it was 4100 nM; in assay [5], 4.9 µM; in assay [7] it was 3600 nM; in assay [8], 420 nM.

For `N=C(N)NCCC(=O)Nc1ccc(S(=O)(=O)N[C@@H](Cc2cccc(C(=N)N)c2)C(=O)N2CCC(CCNC(=N)N)CC2)cc1`, the Ki in assay [2] was determined as 8.7 nM; in assay [3] it was 1200 nM; in assay [5] it was 10 µM; in [7], 600 nM; in assay [8] it was 1800 nM.

As for `CC(C)c1cc(C(C)C)c(S(=O)(=O)N[C@@H](Cc2cccc(C(=N)N)c2)C(=O)N2CCC(C(=O)NCCN=C(N)N)CC2)c(C(C)C)c1`, the Ki in assay [2] turned out to be 140 nM; in assay [3], 1800 nM; in [5] it was 5 µM; in assay [7], 620 nM; in assay [8], 20000 nM.

On to `N=C(N)c1cccc(C[C@H](NS(=O)(=O)c2cccc(NC(=O)CCN)c2)C(=O)N2CCC(CCN)CC2)c1`, for which the IC200 in assay [1], in [4] and in [6] was greater than 10 µM in each case. For the same compound, the values for the Activity in assay [9] and in [10] were 40% and 33%, respectively. For the same compound, the Ki in assay [2] is 6.6 nM; in [3], 2400 nM; in assay [5], 21 µM; in [7], 3600 nM; in assay [8], 27000 nM.

Turning to `N=C(N)NCCC1CCN(C(=O)[C@H](Cc2cccc(C(=N)N)c2)NS(=O)(=O)c2ccc(Oc3ccccc3)cc2)CC1`, the Ki in assay [2] turned out to be 38 nM; in assay [3] it was 760 nM; in assay [5], 1 µM; in assay [7] it was 2300 nM; in assay [8] it was 210 nM.

Regarding `N=C(N)NCCC1CCN(C(=O)[C@H](Cc2cccc(C(=N)N)c2)NS(=O)(=O)c2ccc3ccccc3c2)CC1`, the IC200 in [1] was determined as 2.7 µM; in assay [4], 3.8 µM; in [6], 0.32 µM. The figures for the Activity in [9] and in assay [10] were 17% and 53%, respectively. Further, the Ki in assay [3] came out at 20000 nM; in assay [5], 27 µM; in [7], 1300 nM; in assay [8], 110 nM.

Take `N=C(N)c1cccc(C[C@H](NS(=O)(=O)c2ccc(NC(=O)CCN)cc2)C(=O)N2CCC(CCN)CC2)c1`: the Ki in [2] was found to be 28 nM; in assay [3], 1200 nM; in [5] it was 15 µM; in assay [7], 820 nM; in assay [8] it was 8800 nM.

With `CC(C)c1cc(C(C)C)c(S(=O)(=O)NC(Cc2cccc(C(=N)N)c2)C(=O)N2CCN(C(=O)CN)CC2)c(C(C)C)c1` (racemic), the inhibition constant Ki amounted to 690 nM in [2]; 3400 nM in assay [3]; 10.5 µM in assay [5]; 8900 nM in assay [7]; 200 nM in assay [8].

Regarding `CC(C)c1cc(C(C)C)c(S(=O)(=O)N[C@@H](Cc2cccc(C(=N)N)c2)C(=O)N2CCN(C(=O)CCN=C(N)N)CC2)c(C(C)C)c1`, the Ki in assay [2] turned out to be 57 nM; in assay [3], 1400 nM; in [5], 2.9 µM; in [7], 820 nM; in assay [8], 1600 nM.

As for `N=C(N)c1cccc(C[C@H](NS(=O)(=O)c2cccc(NC(=O)CCN)c2)C(=O)N2CCC(CCCN)CC2)c1`, the inhibition constant Ki is 5 nM in assay [2]; 2700 nM in [3]; 15 µM in assay [5]; 1500 nM in assay [7]; 13000 nM in assay [8].

`CC(C)c1cc(C(C)C)c(S(=O)(=O)N[C@@H](Cc2cccc(C(=N)N)c2)C(=O)N2CCCN(C(=O)CCN=C(N)N)CC2)c(C(C)C)c1`: the Ki in assay [2] was found to be 65 nM; in [3] it was 440 nM; in assay [5], 1.2 µM; in assay [7], 810 nM; in [8], 620 nM.

As to `N=C(N)c1cccc(C[C@H](NS(=O)(=O)CCc2cccc3ccccc23)C(=O)N2CCN(C(=O)CCN=C(N)N)CC2)c1`, the Ki in assay [2] was determined as 690 nM; in assay [3], 4200 nM; in [5], 80 µM; in assay [7], 56000 nM; in [8] it was 1500 nM.

On to `N=C(N)NCCC(=O)N1CCN(C(=O)[C@H](Cc2cccc(C(=N)N)c2)NS(=O)(=O)c2ccc3c(c2)C(=O)c2ccccc2C3=O)CC1`, for which the Ki was 53 nM in [2]; 7200 nM in assay [3]; 2.8 µM in [5]; 26000 nM in [7]; 1800 nM in assay [8].

Take `N=C(N)NCCC(=O)N1CCN(C(=O)[C@H](Cc2cccc(C(=N)N)c2)NS(=O)(=O)Cc2ccc3ccccc3c2)CC1`: the Ki in assay [2] is 400 nM; in assay [3], 12000 nM; in assay [5] it was 130 µM; in assay [7], 43000 nM; in assay [8], 2600 nM.

For `CC(C)c1cc(C(C)C)c(S(=O)(=O)N[C@@H](Cc2cccc(C(=N)N)c2)C(=O)N2CCC(C(=O)NCCN)CC2)c(C(C)C)c1`, the inhibition constant (Ki) in assay [2] was 380 nM; in assay [3], 940 nM; in assay [5], 6.3 µM; in [7], 1200 nM; in [8], 16000 nM.

With `N=C(N)c1cccc(C[C@H](NS(=O)(=O)c2cccc3ccccc23)C(=O)N2CCC(CCN=C(N)N)CC2)c1`, the Ki in [2] was 72 nM; in assay [3] it was 1700 nM; in [5], 13 µM; in [7], 2300 nM; in assay [8], 190 nM.

As usually defined, the IC50 is the concentration that gives 50% inhibition. Consider `N=C(N)c1cccc(C[C@H](NS(=O)(=O)c2ccc(C3CCCCC3)cc2)C(=O)N2CCN(C(=N)N)CC2)c1`, for which the Ki is 26 nM in assay [2]; 3100 nM in [3]; 1.3 µM in [5]; 8200 nM in assay [7]; 1700 nM in assay [8]. This compound came in with an IC50 in assay [11] of 3 µM.

As for `N=C(N)NCCC(=O)N1CCN(C(=O)[C@H](Cc2cccc(C(=N)N)c2)NS(=O)(=O)c2ccc(C3CCCCC3)cc2)CC1`, the Ki was determined as 89 nM in assay [2]; 780 nM in assay [3]; 2.3 µM in assay [5]; 10500 nM in [7]; 120 nM in assay [8].

Regarding `N=C(N)NCCC1CCN(C(=O)[C@H](Cc2cccc(C(=N)N)c2)NS(=O)(=O)c2ccc(C3CCCCC3)cc2)CC1`, the Ki was 88 nM in assay [2]; 2000 nM in assay [3]; 1.8 µM in assay [5]; 1900 nM in [7]; 51 nM in assay [8].

On to `Cc1c(C)c(S(=O)(=O)N[C@@H](Cc2cccc(C(=N)N)c2)C(=O)N2CCN(C(=O)CCN=C(N)N)CC2)c(C)c2c1OC(C)(C)C2`, for which the Ki in [2] was 730 nM; in assay [3], 10200 nM; in assay [5], greater than 1000 µM; in [7], 25000 nM; in assay [8], 3000 nM.
